In patent US9399646B2 (Genentech, Inc., priority 2010, dated 2016):

Tests used:
MCF-7 cells = assay: Breast cancer cell viability assay (CellTiter-Glo, 5 days); assay type: cell-based; settings: 5 days' compound exposure; for IC50: Homo sapiens, MCF7, 120 h
Method: MCF-7 cells were adjusted to a concentration of 20,000 cells per mL in RPMI containing 10% FBS and 20 mM HEPES. 16 microliters of the cell suspension (320 cells) was added to each well of a 384 well plate, and the cells were incubated overnight to allow the cells to adhere. The following day an eleven point, serial semilog dilution of each compound was added to the cells in 16 μL at a final concentration ranging from 0.3-0.000003 μM. After 5 days' compound exposure, 16 μL of CellTiter-GLo (Promega, Madison Wis.) was added to the cells the relative luminescence units (RLUs) of each well was determined CellTiter-Glo added to 32 μL of medium without cells was used to obtain a background value. The Percent viability of each sample was determined as follows: (RLU sample-RLU background/RLU untreated cells-RLU background)×100=% viability.

ER-α in MCF-7 cells = molecular target: T1, ER-α in MCF-7 cells (Homo sapiens, UniProt P03372); assay: Breast cancer cell ER-α in cell western assay (SP1); assay type: cell-based; set-up: endogenous in cells; host or cells: MCF-7; settings: 4 or 24 hr post compound addition; for Emax: MCF7, SP1 antibody, read-out: ER-α In Cell Western Assay (SP1) Max Response; for DC50: SP1 antibody, read-out: ER-α In Cell Western Assay (SP1) IC50
T1 sequence (P03372 1-595): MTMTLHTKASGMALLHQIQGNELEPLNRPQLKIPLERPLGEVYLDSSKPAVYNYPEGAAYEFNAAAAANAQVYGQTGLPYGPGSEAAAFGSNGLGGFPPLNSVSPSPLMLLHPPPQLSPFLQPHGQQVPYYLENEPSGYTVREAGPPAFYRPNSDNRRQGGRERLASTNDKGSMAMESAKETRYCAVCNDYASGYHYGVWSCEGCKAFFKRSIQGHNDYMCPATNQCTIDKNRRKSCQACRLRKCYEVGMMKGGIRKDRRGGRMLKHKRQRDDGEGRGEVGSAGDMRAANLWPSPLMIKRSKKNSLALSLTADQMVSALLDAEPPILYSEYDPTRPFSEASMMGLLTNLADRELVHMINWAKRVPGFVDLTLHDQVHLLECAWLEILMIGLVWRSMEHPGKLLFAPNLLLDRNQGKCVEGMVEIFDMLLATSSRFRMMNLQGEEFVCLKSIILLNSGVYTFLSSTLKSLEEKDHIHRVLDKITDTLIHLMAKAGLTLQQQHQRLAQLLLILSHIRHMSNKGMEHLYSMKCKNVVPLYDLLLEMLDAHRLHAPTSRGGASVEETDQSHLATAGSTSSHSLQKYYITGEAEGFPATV
Method: MCF-7 cells were adjusted to a concentration of 200,000 cells per mL in RPMI containing 10% charcoal-stripped FBS and 20 mM HEPES. 16 microliters of the cell suspension (3200 cells) was added to each well of a poly-D-lysine 384 well plate, and the cells were incubated overnight to allow the cells to adhere. The following day an eleven point, serial semilog dilution of each compound was added to the cells in 16 μL at a final concentration ranging from 0.3-0.000003 μM. At 4 or 24 hr post compound addition, the cells were fixed (10% formalin in PBS) for 20 minutes. Cells were permeablized in PBS 0.1% Triton and blocked with LICOR blocking buffer (50 μl/well, 90°). The wells were then incubated overnight at 4° C. with SP1 rabbit monoclonal Ab (Thermo Scientific) diluted 1:1000 in LICOR blocking buffer/0.1% Tween-20. Wells which were treated with blocking buffer with Tween but no antibody were used as a background control. Wells were washed with 0.1% Tween-20/PBS and then incubated in goat anti-rabbit IRDye™ 800CW (LICOR Inc.; 1:1000) and DRAQ5 DNA dye (1:2000 for 2 mM stock) diluted in LICOR blocking buffer containing 0.1% Tween-20 and 0.01% SDS for 60 minutes. Cells were washed (50 μl/well, 5′ each) in 0.1% Tween-20/PBS. Plates were scanned on a LICOR Odyssey infrared imaging system. Integrated intensities in the 800 nm channel and 700 nm channel were measured to determine levels of ER and DNA respectively. Percent ER levels were determined as follows: (Integrated intensity 800 nm sample/integrated intensity 700 nm sample)/(Integrated intensity 800 nm untreated cells/integrated intensity 700 nm untreated cells)×100=% ER levels.

IC50 (MCF-7 cells) | Emax (ER-α in MCF-7 cells) | DC50 (ER-α in MCF-7 cells) | SMILES | MCF7 Viability Assay Max Response (MCF-7 cells)
≤ 100 nM | ≥ 40% | ≤ 100 nM | CC/C(=C(/c1ccc(/C=C/C(=O)O)cc1)c1cc(F)c2[nH]ccc2c1)c1ccc(F)cc1Cl [Compound 254, (E)-3-(4-((E)-2-(2-Chloro-4-fluorophenyl)-1-(7-fluoro-1H-indol-5-yl)but-1-en-1-yl)phenyl)acrylic acid] | ++ (++ = a single % value ≧ 40%)
≤ 100 nM | ≥ 40% | ≤ 100 nM | CC/C(=C(/c1ccc(/C=C/C(=O)O)cc1)c1ccc2[nH]nc(F)c2c1)c1ccncc1Cl [Compound 306, (E)-3-(4-((E)-2-(3-Chloropyridin-4-yl)-1-(3-fluoro-1H-indazol-5-yl)but-1-en-1-yl)phenyl)acrylic acid] | ++ (++ = a single % value ≧ 40%)
≤ 100 nM | ≥ 40% | ≤ 100 nM | CC/C(=C(/c1ccc(/C=C/C(=O)O)cc1)c1ccc2scnc2c1)c1cscc1C [Compound 276, (E)-3-(4-((E)-1-(Benzo[d]thiazol-5-yl)-2-(4-methylthiophen-3-yl)but-1-en-1-yl)phenyl)acrylic acid] | ++ (++ = a single % value ≧ 40%)
≤ 100 nM | ≥ 40% |  | CC/C(=C(/c1ccc(/C=C/C(=O)O)cc1)c1ccc2[nH]ccc2c1)c1ccccc1 [Compound 64, (E)-3-(4-((E)-1-(1H-Indol-5-yl)-2-phenylbut-1-en-1-yl)phenyl)acrylic acid] | ++ (++ = a single % value ≧ 40%)
≤ 100 nM | ≥ 40% | ≤ 100 nM | CC/C(=C(/c1ccc(/C=C/C(=O)O)cc1)c1ccc2[nH]ncc2c1)c1cccc2occc12 [Compound 96, (E)-3-(4-((E)-2-(Benzofuran-4-yl)-1-(1H-indazol-5-yl)but-1-en-1-yl)phenyl)acrylic acid] | ++ (++ = a single % value ≧ 40%)
≤ 100 nM | ≥ 40% | ≤ 100 nM | CC/C(=C(/c1ccc(/C=C/C(=O)O)cc1)c1ccc2c(cnn2C(=O)C(C)C)c1)c1ccc(F)cc1Cl [Compound 404, (E)-3-(4-((E)-2-(2-Chloro-4-fluorophenyl)-1-(1-isobutyryl-1H-indazol-5-yl)but-1-en-1-yl)phenyl)acrylic acid] | ++ (++ = a single % value ≧ 40%)

The next lines start with the molecule.

SMILES | IC50 (MCF-7 cells) | Emax (ER-α in MCF-7 cells) | DC50 (ER-α in MCF-7 cells) | MCF7 Viability Assay Max Response (MCF-7 cells)
CC/C(=C(/c1ccc(/C=C/C(=O)O)cc1)c1ccc2[nH]ncc2c1)c1cccc(Oc2ccncc2C(F)(F)F)c1 [Compound 372, (E)-3-(4-((E)-1-(1H-Indazol-5-yl)-2-(3-((3-(trifluoromethyl)pyridin-4-yl)oxy)phenyl)but-1-en-1-yl)phenyl)acrylic acid] | > 100 nM | ≥ 40% | ≤ 100 nM | ++ (++ = a single % value ≧ 40%)
CC/C(=C(/c1ccc(/C=C/C(=O)O)cc1)c1ccc2[nH]ncc2c1)c1ccc2c(c1)N(C)C(=O)CO2 [Compound 262, (E)-3-(4-((E)-1-(1H-Indazol-5-yl)-2-(4-methyl-3-oxo-3,4-dihydro-2H-benzo[b][1,4]oxazin-6-yl)but-1-en-1-yl)phenyl)acrylic acid] | > 100 nM | ≥ 40% | > 100 nM | ++ (++ = a single % value ≧ 40%)
CC/C(=C(/c1ccc(/C=C/C(=O)NS(C)(=O)=O)cc1)c1ccc2c(cnn2C)c1)c1ccc(F)cc1Cl [Compound 424, (E)-3-(4-((E)-2-(2-Chloro-4-fluorophenyl)-1-(1-methyl-1H-indazol-5-yl)but-1-en-1-yl)phenyl)-N-(methylsulfonyl)acrylamide] | > 100 nM | ≥ 40% | ≤ 100 nM | ++ (++ = a single % value ≧ 40%)
CC/C(=C(/c1ccc(/C=C/C(=O)O)cc1)c1cccc2[nH]nnc12)c1ccc(F)cc1Cl [Compound 89, (E)-3-(4-((E)-1-(1H-Benzo[d][1,2,3]triazol-4-yl)-2-(2-chloro-4-fluorophenyl)but-1-en-1-yl)phenyl)acrylic acid] | ≤ 100 nM | ≥ 40% | ≤ 100 nM | ++ (++ = a single % value ≧ 40%)
CC/C(=C(/c1ccc(/C=C/C(=O)O)cc1)c1ccc2[nH]ncc2c1)c1cc(Oc2ccccc2)ccc1C [Compound 297, (E)-3-(4-((E)-1-(1H-Indazol-5-yl)-2-(2-methyl-5-phenoxyphenyl)but-1-en-1-yl)phenyl)acrylic acid] | ≤ 100 nM | ≥ 40% | ≤ 100 nM | ++ (++ = a single % value ≧ 40%)
CC/C(=C(/c1ccc(/C=C/C(=O)NC(C)C)cc1)c1ccc2[nH]ncc2c1)c1ccccc1 [Compound 419, (E)-3-(4-((E)-1-(1H-Indazol-5-yl)-2-phenylbut-1-en-1-yl)phenyl)-N-isopropylacrylamide] | ≤ 100 nM | ≥ 40% | ≤ 100 nM | ++ (++ = a single % value ≧ 40%)
CC/C(=C(/c1ccc(/C=C/C(=O)O)cc1)c1ccc2cncn2c1)c1ccccc1 [Compound 133, (E)-3-(4-((E)-1-(Imidazo[1,5-a]pyridin-6-yl)-2-phenylbut-1-en-1-yl)phenyl)acrylic acid] | > 100 nM | ≥ 40% | > 100 nM | ++ (++ = a single % value ≧ 40%)
O=C(O)/C=C/c1ccc(/C(=C(\c2ccccc2)C2CC2)c2cccc3[nH]ncc23)cc1 [Compound 70, (E)-3-(4-((E)-2-Cyclopropyl-1-(1H-indazol-4-yl)-2-phenylvinyl)phenyl)acrylic acid] | ≤ 100 nM | ≥ 40% | ≤ 100 nM | ++ (++ = a single % value ≧ 40%)
CC/C(=C(/c1ccc(/C=C/C(=O)O)cc1)c1ccnc2[nH]ncc12)c1ccccc1 [Compound 56, (E)-3-(4-((E)-2-Phenyl-1-(1H-pyrazolo[3,4-b]pyridin-4-yl)but-1-en-1-yl)phenyl)acrylic acid] | > 100 nM | ≥ 40% | ≤ 100 nM | ++ (++ = a single % value ≧ 40%)
CC/C(=C(/c1ccc(/C=C/C(=O)O)cc1)c1ccc2[nH]ncc2c1)c1ccc(OCCCCC(=O)O)cc1 [Compound 354, 5-(4-((E)-1-(4-((E)-2-Carboxyvinyl)phenyl)-1-(1H-indazol-5-yl)but-1-en-2-yl)phenoxy)pentanoic acid] | > 100 nM | ≥ 40% | > 100 nM | + (+ = a single % value < 40%)
O=C(O)/C=C/c1ccc(/C(=C(/CCF)c2ccncc2Cl)c2ccc3[nH]ncc3c2)cc1 [Compound 230, (E)-3-(4-((E)-2-(3-Chloropyridin-4-yl)-4-fluoro-1-(1H-indazol-5-yl)but-1-en-1-yl)phenyl)acrylic acid] | ≤ 100 nM | ≥ 40% | ≤ 100 nM | ++ (++ = a single % value ≧ 40%)
